{"source": "patent US6677336B2", "about": "“Substituted piperazine compounds” (CV Therapeutics, Inc., priority 2000, dated 2004)", "system": "mitochondrial fatty acid oxidation (rat heart mitochondria)", "assay": "Palmitoyl CoA oxidation in isolated rat heart mitochondria", "type": "biochemical", "details": "100 μM compound; 15 min at 30° C; DMSO control", "description": "Compounds of this invention were evaluated in a rat heart mitochondiral assay as set forth below.\nRat heart mitochondria were isolated by the method of Nedergard and Cannon (methods in Enzymol. 55, 3, 1979).\nPalmitoyl CoA oxidation—The Palmityl CoA oxidation was carried out in a total volume of 100 micro liters containing the following agents: 110 mM KCl, 33 mM Tris buffer at pH 8, 2 mM KPi, 2 mM MgCl2, 0.1 mM EDTA, 14.7 microM defatted BSA, 0.5 mM malic acid, 13 mM carnitine, 1 mM ADP, 52 micrograms of mitochondrial protein, and 16 microM 1-C14 palmitoyl CoA (Sp. Activity 60 mCi/mmole; 20 microCi/ml, using 5 microliters per assay). The compounds of this invention were added in a DMSO solution at the following concentrations: 100 microM, 30 microM, and 3 microM. In each assay, a DMSO control was used. After 15 min at 30° C., the enzymatic reaction was centrifuged (20,000 g for 1 min), and 70 microliters of the supernatant was added to an activated reverse phase silicic acid column (approximately 0.5 ml of silicic acid). The column was eluted with 2 ml of water, and 0.5 ml of the eluent was used for scintillation counting to determine the amount of C^14 trapped as C^14 bicarbonate ion.", "data": [{"molecule": "Cc1ccccc1NC(=O)CN1CCN(C[C@H](O)COc2ccccc2F)[C@@H](C)C1", "note": "[Compound 37, 2-{(3S)-4-[(2S)-3-(2-fluorophenoxy)-2-hydroxypropyl]-3-methylpiperazinyl}-N-(2-methylphenyl)acetamide]", "values": [{"measurement": "Inhibition of mitochondrial fatty acid oxidation using palmitoyl CoA as substrate - % of Control", "value": 55, "unit": "%"}]}, {"molecule": "Cc1cccc(C(C)C)c1NC(=O)CN1CCN(C[C@H](O)COc2ccccc2F)[C@@H](C)C1", "note": "[Compound 38, 2-{(3S)-4-[(2S)-3-(2-fluorophenoxy)-2-hydroxypropyl]-3-methylpiperazinyl}-N-[6-methyl-2-(methylethyl)phenyl]acetamide]", "values": [{"measurement": "Inhibition of mitochondrial fatty acid oxidation using palmitoyl CoA as substrate - % of Control", "value": 78, "unit": "%"}]}, {"molecule": "CSc1cccc(NC(=O)CN2CCN(C[C@H](O)COc3ccccc3F)[C@@H](C)C2)c1", "note": "[Compound 39, 2-{(3S)-4-[(2S)-3-(2-fluorophenoxy)-2-hydroxypropyl]-3-methylpiperazinyl}-N-(3-methylthiophenyl)acetamide]", "values": [{"measurement": "Inhibition of mitochondrial fatty acid oxidation using palmitoyl CoA as substrate - % of Control", "value": 60, "unit": "%"}]}, {"molecule": "COc1cc(Cl)c(C)cc1NC(=O)CN1CCN(C[C@H](O)COc2ccccc2F)[C@@H](C)C1", "note": "[Compound 40, 2-{(3S)-4-[(2S)-3-(2-fluorophenoxy)-2-hydroxypropyl]-3-methylpiperazinyl}-N-(4-chloro-2-methoxy-5-methylphenyl)acetamide]", "values": [{"measurement": "Inhibition of mitochondrial fatty acid oxidation using palmitoyl CoA as substrate - % of Control", "value": 23, "unit": "%"}]}, {"molecule": "C[C@H]1CN(CC(=O)Nc2ccc(N(C)C)cc2)CCN1C[C@H](O)COc1ccccc1F", "note": "[Compound 41, 2-{(3S)-4-[(2S)-3-(2-fluorophenoxy)-2-hydroxypropyl]-3-methylpiperazinyl}-N-[4-(dimethylamino)phenyl]acetamide]", "values": [{"measurement": "Inhibition of mitochondrial fatty acid oxidation using palmitoyl CoA as substrate - % of Control", "value": 64, "unit": "%"}]}, {"molecule": "COc1ccc(NC(=O)CN2CCN(C[C@H](O)COc3ccccc3F)[C@@H](C)C2)c(OC)c1", "note": "[Compound 42, 2-{(3S)-4-[(2S)-3-(2-fluorophenoxy)-2-hydroxypropyl]-3-methylpiperazinyl}-N-(2,4-dimethoxyphenyl)acetamide]", "values": [{"measurement": "Inhibition of mitochondrial fatty acid oxidation using palmitoyl CoA as substrate - % of Control", "value": 68, "unit": "%"}]}, {"molecule": "C[C@H]1CN(CC(=O)Nc2ccc(Cl)c(Cl)c2)CCN1C[C@H](O)COc1ccccc1F", "note": "[Compound 43, 2-{(3S)-4-[(2S)-3-(2-fluorophenoxy)-2-hydroxypropyl]-3-methylpiperazinyl}-N-(3,4-dichlorophenyl)acetamide]", "values": [{"measurement": "Inhibition of mitochondrial fatty acid oxidation using palmitoyl CoA as substrate - % of Control", "value": 19, "unit": "%"}]}, {"molecule": "C[C@H]1CN(CC(=O)Nc2ccc(Cl)cc2)CCN1C[C@H](O)COc1ccccc1F", "note": "[Compound 44, 2-{(3S)-4-[(2S)-3-(2-fluorophenoxy)-2-hydroxypropyl]-3-methylpiperazinyl}-N-(4-chlorophenyl)acetamide]", "values": [{"measurement": "Inhibition of mitochondrial fatty acid oxidation using palmitoyl CoA as substrate - % of Control", "value": 81, "unit": "%"}]}, {"molecule": "C[C@H]1CN(CC(=O)Nc2cccc(Cl)c2)CCN1C[C@H](O)COc1ccccc1F", "note": "[Compound 45, 2-{(3S)-4-[(2S)-3-(2-fluorophenoxy)-2-hydroxypropyl]-3-methylpiperazinyl}-N-(3-chlorophenyl)acetamide]", "values": [{"measurement": "Inhibition of mitochondrial fatty acid oxidation using palmitoyl CoA as substrate - % of Control", "value": 58, "unit": "%"}]}, {"molecule": "C[C@H]1CN(CC(=O)Nc2cc(Cl)cc(Cl)c2)CCN1C[C@H](O)COc1ccccc1F", "note": "[Compound 46, 2-{(3S)-4-[(2S)-3-(2-fluorophenoxy)-2-hydroxypropyl]-3-methylpiperazinyl}-N-(3,5-dichlorophenyl)acetamide]", "values": [{"measurement": "Inhibition of mitochondrial fatty acid oxidation using palmitoyl CoA as substrate - % of Control", "value": 7, "unit": "%"}]}, {"molecule": "COc1ccc(NC(=O)CN2CCN(C[C@H](O)COc3ccccc3F)[C@@H](C)C2)cc1", "note": "[Compound 47, 2-{(3S)-4-[(2S)-3-(2-fluorophenoxy)-2-hydroxypropyl]-3-methylpiperazinyl}-N-(4-methoxyphenyl)acetamide]", "values": [{"measurement": "Inhibition of mitochondrial fatty acid oxidation using palmitoyl CoA as substrate - % of Control", "value": 80, "unit": "%"}]}, {"molecule": "Cc1ccc(NC(=O)CN2CCN(C[C@H](O)COc3ccccc3F)[C@@H](C)C2)cc1", "note": "[Compound 48, 2-{(3S)-4-[(2S)-3-(2-fluorophenoxy)-2-hydroxypropyl]-3-methylpiperazinyl}-N-(4-methylphenyl)acetamide]", "values": [{"measurement": "Inhibition of mitochondrial fatty acid oxidation using palmitoyl CoA as substrate - % of Control", "value": 61, "unit": "%"}]}, {"molecule": "Cc1cccc(NC(=O)CN2CCN(C[C@H](O)COc3ccccc3F)[C@@H](C)C2)c1", "note": "[Compound 49, 2-{(3S)-4-[(2S)-3-(2-fluorophenoxy)-2-hydroxypropyl]-3-methylpiperazinyl}-N-(3-methylphenyl)acetamide]", "values": [{"measurement": "Inhibition of mitochondrial fatty acid oxidation using palmitoyl CoA as substrate - % of Control", "value": 66, "unit": "%"}]}, {"molecule": "C[C@H]1CN(CC(=O)Nc2ccc(F)cc2)CCN1C[C@H](O)COc1ccccc1F", "note": "[Compound 50, 2-{(3S)-4-[(2S)-3-(2-fluorophenoxy)-2-hydroxypropyl]-3-methylpiperazinyl}-N-(4-fluorophenyl)acetamide]", "values": [{"measurement": "Inhibition of mitochondrial fatty acid oxidation using palmitoyl CoA as substrate - % of Control", "value": 80, "unit": "%"}]}, {"molecule": "C[C@H]1CN(CC(=O)Nc2ccc(C#N)cc2)CCN1C[C@H](O)COc1ccccc1F", "note": "[Compound 51, 2-{(3S)-4-[(2S)-3-(2-fluorophenoxy)-2-hydroxypropyl]-3-methylpiperazinyl}-N-(4-cyanophenyl)acetamide]", "values": [{"measurement": "Inhibition of mitochondrial fatty acid oxidation using palmitoyl CoA as substrate - % of Control", "value": 99, "unit": "%"}]}, {"molecule": "COc1ccccc1NC(=O)CN1CCN(C[C@H](O)COc2ccccc2F)[C@@H](C)C1", "note": "[Compound 53, 2-{(3S)-4-[(2S)-3-(2-fluorophenoxy)-2-hydroxypropyl]-3-methylpiperazinyl}-N-(2-methoxyphenyl)acetamide]", "values": [{"measurement": "Inhibition of mitochondrial fatty acid oxidation using palmitoyl CoA as substrate - % of Control", "value": 81, "unit": "%"}]}, {"molecule": "C[C@H]1CN(CC(=O)Nc2ccc(C(F)(F)F)cc2)CCN1C[C@H](O)COc1ccccc1F", "note": "[Compound 54, 2-{(3S)-4-[(2S)-3-(2-fluorophenoxy)-2-hydroxypropyl]-3-methylpiperazinyl}-N-[4-(trifluoromethyl)phenyl]acetamide]", "values": [{"measurement": "Inhibition of mitochondrial fatty acid oxidation using palmitoyl CoA as substrate - % of Control", "value": 75, "unit": "%"}]}, {"molecule": "C[C@H]1CN(CC(=O)Nc2ccc(Cl)c(C(F)(F)F)c2)CCN1C[C@H](O)COc1ccccc1F", "note": "[Compound 55, 2-{(3S)-4-[(2S)-3-(2-fluorophenoxy)-2-hydroxypropyl]-3-methylpiperazinyl}-N-[4-chloro-3-(trifluoromethyl)phenyl]acetamide]", "values": [{"measurement": "Inhibition of mitochondrial fatty acid oxidation using palmitoyl CoA as substrate - % of Control", "value": 11, "unit": "%"}]}, {"molecule": "COc1cc(NC(=O)CN2CCN(C[C@H](O)COc3ccccc3F)[C@@H](C)C2)cc(OC)c1", "note": "[Compound 56, 2-{(3S)-4-[(2S)-3-(2-fluorophenoxy)-2-hydroxypropyl]-3-methylpiperazinyl}-N-(3,5-dimethoxyphenyl)acetamide]", "values": [{"measurement": "Inhibition of mitochondrial fatty acid oxidation using palmitoyl CoA as substrate - % of Control", "value": 83, "unit": "%"}]}, {"molecule": "C[C@H]1CN(CC(=O)Nc2ccc(N3CCOCC3)cc2)CCN1C[C@H](O)COc1ccccc1F", "note": "[Compound 57, 2-{(3S)-4-[(2S)-3-(2-fluorophenoxy)-2-hydroxypropyl]-3-methylpiperazinyl}-N-(4-morpholin-4-ylphenyl)acetamide]", "values": [{"measurement": "Inhibition of mitochondrial fatty acid oxidation using palmitoyl CoA as substrate - % of Control", "value": 73, "unit": "%"}]}, {"molecule": "COc1ccc(NC(=O)CN2CCN(C[C@H](O)COc3ccccc3F)[C@@H](C)C2)cc1F", "note": "[Compound 58, 2-{(3S)-4-[(2S)-3-(2-fluorophenoxy)-2-hydroxypropyl]-3-methylpiperazinyl}-N-(3-fluoro-4-methoxyphenyl)acetamide]", "values": [{"measurement": "Inhibition of mitochondrial fatty acid oxidation using palmitoyl CoA as substrate - % of Control", "value": 81, "unit": "%"}]}, {"molecule": "COc1cc(NC(=O)CN2CCN(C[C@H](O)COc3ccccc3F)[C@@H](C)C2)cc(OC)c1OC", "note": "[Compound 59, 2-{(3S)-4-[(2S)-3-(2-fluorophenoxy)-2-hydroxypropyl]-3-methylpiperazinyl}-N-(3,4,5-trimethoxyphenyl)acetamide]", "values": [{"measurement": "Inhibition of mitochondrial fatty acid oxidation using palmitoyl CoA as substrate - % of Control", "value": 76, "unit": "%"}]}, {"molecule": "COc1ccc(NC(=O)CN2CCN(C[C@H](O)COc3ccccc3F)[C@@H](C)C2)cc1OC", "note": "[Compound 60, 2-{(3S)-4-[(2S)-3-(2-fluorophenoxy)-2-hydroxypropyl]-3-methylpiperazinyl}-N-(3,4-dimethoxyphenyl)acetamide]", "values": [{"measurement": "Inhibition of mitochondrial fatty acid oxidation using palmitoyl CoA as substrate - % of Control", "value": 81, "unit": "%"}]}, {"molecule": "C[C@H]1CN(CC(=O)Nc2ccc(Cl)cc2F)CCN1C[C@H](O)COc1ccccc1F", "note": "[Compound 61, 2-{(3S)-4-[(2S)-3-(2-fluorophenoxy)-2-hydroxypropyl]-3-methylpiperazinyl}-N-(4-chloro-2-fluorophenyl)acetamide]", "values": [{"measurement": "Inhibition of mitochondrial fatty acid oxidation using palmitoyl CoA as substrate - % of Control", "value": 65, "unit": "%"}]}, {"molecule": "Cc1cccc(CO)c1NC(=O)CN1CCN(C[C@H](O)COc2ccccc2F)[C@@H](C)C1", "note": "[Compound 62]", "values": [{"measurement": "Inhibition of mitochondrial fatty acid oxidation using palmitoyl CoA as substrate - % of Control", "value": 66, "unit": "%"}]}]}
